The values below come from patent US11591297B2, “Compound having PD-L1 expression-suppressing action” (TOHOKU UNIVERSITY, priority 2019, dated 2023).

The test system of this experiment is human IL-2 promoter. Description: IL-2luc activity (luciferase under control of IL-2 promoter) of Jurkat cells co-cultured with IFN-γ-treated A549 cells. It is filed as cell-based. The conditions noted are these: control (DMSO) IFN-γ(−) defined as 100%, control IFN-γ(+) 54.5. The method, then: The pIL-2luc obtained by the insertion of a human IL-2 promoter sequence (−945 to 53) into the multiple cloning site of pGL-3 vector basic (Promega) was preliminarily transfected into Jurkat cells. PMA and PHA-L were added into the Jurkat cells and the cells were pre-cultured. Simultaneously, IFN-γ was added into A549 cells and the cells were pre-cultured. The supernatants of each culture liquid at the time of the pre-culture of each cell were removed, the culture liquids were co-cultured in new medium. The luciferase activity of the co-cultured Jurkat cells was measured. Each test compound was added into the A549 cell culture liquid during the pre-culture.
A549 cells were suspended in DMEM medium at a concentration of 3×10^5 cells/mL to prepare a suspension, and the suspension was dispensed into a T25 flask in an amount of 5 mL and cultured
Separately, 5 μg of pIL-2luc DNA and 15 μL of TransIT-Jurkat reagent (Takara Bio: Cat #V2124) were added into 500 μL of serum-free medium, and the medium was allowed to stand at room temperature for 15 minutes. […]
LAS in Luciferase Assay System was dissolved in LAB to prepare a luciferase reagent. 10 μL of the sample was mixed with 50 μL of the luciferase reagent, and the chemiluminescence (Relative Luminescence Intensity: RLU) of the sample was measured using GloMax20/20 (Promega). […]

Where the note is “0.5 μM”, `O=C(Nc1ccc(Oc2ccc(S(F)(F)(F)(F)F)cc2)cc1)C1CCCN(C(=O)c2ccc([N+](=O)[O-])cc2)C1` (centres unmarked) [Example 5, 1-(4-Nitrobenzoyl)-N-(4-(4-(pentafluorosulfanyl)phenoxy)phenyl)piperidine-3-carboxamide] returned an activity at 0.5 µM of 63.5%. Where the note is “1 μM”, this compound displayed an activity at 1 µM of 85.9%.
